Patent USRE46511E1, “Fused pyrimidine derivatives for inhibition of tyrosine kinase activity” (HANMI SCIENCE CO., LTD., priority 2010, dated 2017)

How the values were obtained:
[1] = system: NCI-H1975 (EGFR L858R/T790M); assay: Inhibition test for growth of cancer cell expressing EGFR (MTS), NCI-H1975; type: cell-based; details: Homo sapiens; NCI-H1975 cells, 48 hours, MTS; read-out: GI50 NCI-H1975 EGFR L858R/T790M
BMX = target: T1, BMX (Homo sapiens, UniProt P51813); assay: z-lyte kinase assay, BMX; type: biochemical
T1 construct: purchased Invitrogen
T1 sequence (P51813 1-675): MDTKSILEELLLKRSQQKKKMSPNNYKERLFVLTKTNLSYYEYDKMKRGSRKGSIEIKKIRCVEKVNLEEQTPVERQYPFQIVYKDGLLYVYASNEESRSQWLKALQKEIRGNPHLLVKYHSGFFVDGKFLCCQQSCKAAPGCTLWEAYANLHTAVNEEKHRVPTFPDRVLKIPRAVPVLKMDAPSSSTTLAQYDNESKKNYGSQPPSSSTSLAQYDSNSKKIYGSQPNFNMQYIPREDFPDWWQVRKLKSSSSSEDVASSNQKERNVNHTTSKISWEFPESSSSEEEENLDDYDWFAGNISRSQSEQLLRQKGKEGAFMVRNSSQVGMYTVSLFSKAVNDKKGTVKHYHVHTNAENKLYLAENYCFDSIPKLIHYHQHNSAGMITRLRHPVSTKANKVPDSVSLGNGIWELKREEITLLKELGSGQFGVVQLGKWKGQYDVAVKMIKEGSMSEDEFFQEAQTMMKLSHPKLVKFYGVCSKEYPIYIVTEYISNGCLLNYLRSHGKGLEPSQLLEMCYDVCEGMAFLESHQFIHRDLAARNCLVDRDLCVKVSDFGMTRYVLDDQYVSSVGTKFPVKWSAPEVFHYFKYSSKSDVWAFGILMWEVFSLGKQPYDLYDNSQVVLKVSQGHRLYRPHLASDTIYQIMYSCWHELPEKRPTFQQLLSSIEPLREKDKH

[2] = system: HCC827 (EGFR DelE746_A750); assay: Inhibition test for growth of cancer cell expressing EGFR (SRB), HCC827; type: cell-based; details: Homo sapiens, HCC827, 72 h, HCC827 cells, 72 hours, SRB; read-out: GI50 HCC827 EGFR DelE746_A750;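 note: cells in 96-well plates exposed to tenfold serial dilutions from 100 µM, fixed with trichloroacetic acid, SRB-stained, absorbance read at 540 nm, DMSO under 1%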
Method: (§1) A431 cell line was incubated in a high-glucose DMEM (Dulbecco's Modified Eagle's Medium) supplemented with 10% fetal bovine serum (FBS) and 1% penicillin/streptomycin (Gibco BRL), and HCC827 and NCI-H1975 cell lines were incubated in an RPMI medium supplemented with 10% FBS, 1% penicillin/streptomycin and 1% sodium pyruvate.
(§2) The cancer cell lines stored in a liquid nitrogen tank were each quickly thawed at 37° C., and centrifuged to remove the medium. The resulting cell pellet was mixed with a culture medium, incubated in a culture flask at 37° C. under 5% CO2 for 2 to 3 days, and the medium was removed. The remaining cells were washed with DPBS (Dulbecco's Phosphate Buffered Saline) and separated from the flask by using Tripsin-EDTA. […] 100 μl of the diluted cell solution was added to each well of a 96-well plate, and incubated at 37° C. under 5% CO2 for 1 day.
(§3) In case that the test compound was not soluble in DMSO, 1% HCl was added thereto and treated in a 40° C. water bath for 30 mins until a complete dissolution was attained. The DMSO solution containing test compound was diluted with a culture medium to a final concentration of 100 μM, and then diluted 10 times serially to 10^−6 μM (a final concentration of DMSO was less than 1%).
(§4) The medium was removed from each well of the 96-well plate. And then, 100 μl of a test compound solution was added to each well holding the cultured cells, and the plate was incubated at 37° C. under 5% CO2 for 72 hours (except that NCI-H1975 cells were incubated for 48 hours). After removing the medium from the plate, 50 μA of 10% trichloroacetic acid was added to each well, and the plate was kept at 4° C. for 1 hour to fix the cells to the bottom of the plate. The added 10% trichloroacetic acid solution was removed from each well, the plate was dried, 100 μA of an SRB (Sulforhodamine-B) dye solution at a concentration of 0.4% dissolved in 1% acetic acid was added thereto, and the resulting mixture was reacted for 10 mins at room temperature. After removing the dye solution, the plate was washed with water, and well dried. When the dye solution was not effectively removed by water, 1% acetic acid was used. 150 μA of 10 mM trisma base was added to each well, and the absorbance at 540 nm wavelength was determined with a microplate reader.

BTK = target: T2, BTK (Homo sapiens, UniProt Q06187); assay: z-lyte kinase assay, BTK; type: biochemical
T2 construct: purchased Invitrogen
How it was run: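 Each kinase was mixed with peptide substrate, compound (dilution series made at 1–0.0001 μM in 4% DMSO) and ATP added from a 5~300 μM solution, then incubated 60 min at RT. After development reagent and stop solution, fluorescence was read at 400 nm excitation/520 nm emission and IC50 calculated.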

RLK = target: T3, RLK (Homo sapiens, UniProt P42681); assay: z-lyte kinase assay, RLK; type: biochemical
T3 construct: purchased Invitrogen
T3 sequence (P42681 1-527): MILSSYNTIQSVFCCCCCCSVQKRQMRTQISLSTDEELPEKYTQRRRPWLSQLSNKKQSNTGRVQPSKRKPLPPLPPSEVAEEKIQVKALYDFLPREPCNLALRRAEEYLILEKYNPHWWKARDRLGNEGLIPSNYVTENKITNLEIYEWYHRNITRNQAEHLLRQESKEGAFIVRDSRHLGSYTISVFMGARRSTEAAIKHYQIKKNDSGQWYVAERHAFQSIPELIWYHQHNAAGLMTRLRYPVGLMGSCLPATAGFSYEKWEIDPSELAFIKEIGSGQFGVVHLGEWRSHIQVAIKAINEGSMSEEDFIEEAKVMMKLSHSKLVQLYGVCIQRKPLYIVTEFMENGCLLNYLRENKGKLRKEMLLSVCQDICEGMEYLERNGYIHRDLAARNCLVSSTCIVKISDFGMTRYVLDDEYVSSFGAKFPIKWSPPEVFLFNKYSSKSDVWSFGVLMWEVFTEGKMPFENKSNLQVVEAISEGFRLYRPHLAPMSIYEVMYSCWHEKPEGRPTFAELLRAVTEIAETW

A431 (EGFR WT) = assay: Inhibition test for growth of cancer cell expressing EGFR (SRB), A431; type: cell-based; details: Homo sapiens, A-431; A431 cells, 72 hours, SRB; read-out: GI50 A431 EGFR WT;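 note: cells in 96-well plates exposed to tenfold serial dilutions from 100 µM down to 10^−6 µM, DMSO under 1%, SRB staining read as absorbance at 540 nm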
Method: as §1, §2, §3, §4

T2 sequence (Q06187 whole entry): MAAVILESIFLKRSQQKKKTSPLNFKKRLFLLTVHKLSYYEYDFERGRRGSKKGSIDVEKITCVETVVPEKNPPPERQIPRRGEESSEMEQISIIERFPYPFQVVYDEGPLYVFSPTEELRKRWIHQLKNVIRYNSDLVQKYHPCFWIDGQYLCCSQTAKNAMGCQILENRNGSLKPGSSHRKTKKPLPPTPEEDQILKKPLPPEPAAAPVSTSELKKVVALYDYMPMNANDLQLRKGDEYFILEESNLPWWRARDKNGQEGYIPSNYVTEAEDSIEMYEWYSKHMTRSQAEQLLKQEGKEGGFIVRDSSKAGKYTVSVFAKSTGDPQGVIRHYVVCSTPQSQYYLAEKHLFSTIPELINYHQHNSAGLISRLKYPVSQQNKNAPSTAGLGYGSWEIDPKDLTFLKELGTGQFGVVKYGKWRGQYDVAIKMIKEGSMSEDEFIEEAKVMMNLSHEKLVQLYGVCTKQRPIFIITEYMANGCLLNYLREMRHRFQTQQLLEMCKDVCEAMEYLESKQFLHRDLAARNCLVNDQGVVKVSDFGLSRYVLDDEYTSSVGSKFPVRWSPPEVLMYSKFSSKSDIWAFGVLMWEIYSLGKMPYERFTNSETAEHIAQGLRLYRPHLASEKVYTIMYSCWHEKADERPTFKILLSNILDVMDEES

With `C=CC(=O)Nc1cccc(Oc2nc(Nc3ccc(N4CCN(C)CC4)cc3)nc3ccsc23)c1` [Example 1, N-(3-(2-(4-(4-methylpiperazin-1-yl)phenylamino)thieno[3,2-d]pyrimidine-4-yloxy)phenyl)acrylamide] the GI50 [1] was less than 50 nM, the IC50 (BMX) was no more than 50 nM and the GI50 [2] was less than 50 nM. The IC50 (BTK) was no more than 50 nM, the IC50 (RLK) was no more than 50 nM and the GI50 (A431 (EGFR WT)) was greater than 1000 nM.
